These results are taken from patent publication US20130338152A1, “FLUOROPHENYL BICYCLIC HETEROARYL COMPOUNDS” (IRM LLC, priority 2011, published 2013).

The structures appear in SMILES notation. Like-named read-outs stand apart in the source and are kept apart here. A value given as a limit tells only on which side of the number the result lay.

In assay [1] the target is hERG channels (Homo sapiens, UniProt Q12809). The assay can be described thus: biochemical.
The target of assay [2] is T1, IGF1R (Homo sapiens, UniProt P08069). The assay is described as follows: Enzymatic kinase assay (filter-binding/flashplate). Type of assay: biochemical. Here is the method: (§1) Two methods were used to analyze phosphorylated peptides and proteins produced by the listed tyrosine and serine/threonine-specific protein kinases: either using a filter-binding assay (FB), or using a flashplate assay (FP). The activities of protein kinases were assayed in the presence or absence of inhibitors, by measuring the incorporation of ^33P from [γ^33P]ATP into appropriate substrates.
T1 sequence (P08069 31-1367): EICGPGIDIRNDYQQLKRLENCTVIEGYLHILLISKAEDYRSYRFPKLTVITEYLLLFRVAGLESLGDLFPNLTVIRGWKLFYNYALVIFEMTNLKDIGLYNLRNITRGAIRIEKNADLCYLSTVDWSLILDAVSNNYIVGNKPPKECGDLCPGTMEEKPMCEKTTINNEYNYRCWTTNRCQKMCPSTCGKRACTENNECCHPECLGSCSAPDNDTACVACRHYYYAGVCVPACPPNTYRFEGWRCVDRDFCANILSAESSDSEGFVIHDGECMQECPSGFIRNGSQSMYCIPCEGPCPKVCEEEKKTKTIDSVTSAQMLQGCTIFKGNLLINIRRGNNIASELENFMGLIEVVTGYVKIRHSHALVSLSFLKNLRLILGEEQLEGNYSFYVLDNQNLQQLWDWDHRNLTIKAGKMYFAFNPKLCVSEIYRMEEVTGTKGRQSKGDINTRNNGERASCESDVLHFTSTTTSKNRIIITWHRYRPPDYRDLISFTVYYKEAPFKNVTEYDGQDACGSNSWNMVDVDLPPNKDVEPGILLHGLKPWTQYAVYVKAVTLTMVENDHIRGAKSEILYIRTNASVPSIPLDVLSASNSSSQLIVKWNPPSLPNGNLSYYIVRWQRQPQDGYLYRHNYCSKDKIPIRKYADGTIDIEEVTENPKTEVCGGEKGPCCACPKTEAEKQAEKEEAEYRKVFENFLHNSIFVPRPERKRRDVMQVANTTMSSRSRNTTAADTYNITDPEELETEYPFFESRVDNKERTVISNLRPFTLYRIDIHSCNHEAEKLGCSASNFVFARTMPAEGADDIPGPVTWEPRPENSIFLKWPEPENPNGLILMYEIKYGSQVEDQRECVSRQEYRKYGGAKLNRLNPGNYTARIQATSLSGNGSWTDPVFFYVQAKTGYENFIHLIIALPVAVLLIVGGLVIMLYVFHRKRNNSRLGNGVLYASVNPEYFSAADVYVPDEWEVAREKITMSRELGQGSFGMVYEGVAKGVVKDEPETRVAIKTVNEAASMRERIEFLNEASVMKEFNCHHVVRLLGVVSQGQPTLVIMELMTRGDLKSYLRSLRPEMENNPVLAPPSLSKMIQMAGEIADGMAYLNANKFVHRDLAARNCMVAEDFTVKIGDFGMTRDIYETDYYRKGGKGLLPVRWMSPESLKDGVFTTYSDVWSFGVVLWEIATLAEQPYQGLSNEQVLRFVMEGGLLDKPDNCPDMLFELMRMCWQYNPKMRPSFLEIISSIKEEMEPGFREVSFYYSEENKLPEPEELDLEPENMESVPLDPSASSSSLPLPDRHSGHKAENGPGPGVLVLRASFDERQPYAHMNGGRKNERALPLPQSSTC
(§2) 96-well polypropylene microplates were used to assay the activity in the FB mode. To determine the inhibitory activity of compounds 10 μL of compound dilutions were pipetted into 96-well plates followed by the addition of 10 μL of assay mix and 10 μL of individual enzymes. With the addition of the enzymes the reactions were initiated and continued at RT. […] The final concentration of DMSO in the enzyme assays was 1%.
(§3) Flashplates are available as 96-well standard (STFPs) or as streptavidin-(SAFPs) or nickel coated FPs (NiFPs) from Perkin Elmer. STFPs are 96-well polystyrene microplates in which the interior of each well is permanently coated with a thin layer of polystyrene-based scintillant. Streptavidin flashplates (SAFP) are 96 or 384-well STFPs coated with streptavidin. SAFPs are suitable for a wide variety of assay applications which utilize biotinylated capture molecules. NiFP or nickel chelate flashplates are 96- or 384-well STFPs coated with nickel chelate. NiFPs are designed for in-plate, radiometric assays which utilize 4- or 6-histidine tagged proteins and peptides.
(§4) All kinase assays were performed in STFPs for 60 mins at RT and stopped with 50 μL of 0.5% H3PO4 except PKA which were carried out in polypropylene 96- and 384-well plates, respectively. […] All wells were then washed three times with 200 μL of 0.5% H3PO4 and the plates were dried at room temperature. The plates were sealed and counted in a microplate scintillation counter (TopCount NXT, TopCount NXT HTS). The final concentration of DMSO in the enzyme assays was 1%.

The target in assay [3] is InsR (Homo sapiens, UniProt P06213). The assay is described as follows: Enzymatic kinase assay (filter-binding/flashplate). The format is biochemical. Here is the method: as §1, §2, §3, §4
Sequence of InsR (P06213 28-1382, species assumed): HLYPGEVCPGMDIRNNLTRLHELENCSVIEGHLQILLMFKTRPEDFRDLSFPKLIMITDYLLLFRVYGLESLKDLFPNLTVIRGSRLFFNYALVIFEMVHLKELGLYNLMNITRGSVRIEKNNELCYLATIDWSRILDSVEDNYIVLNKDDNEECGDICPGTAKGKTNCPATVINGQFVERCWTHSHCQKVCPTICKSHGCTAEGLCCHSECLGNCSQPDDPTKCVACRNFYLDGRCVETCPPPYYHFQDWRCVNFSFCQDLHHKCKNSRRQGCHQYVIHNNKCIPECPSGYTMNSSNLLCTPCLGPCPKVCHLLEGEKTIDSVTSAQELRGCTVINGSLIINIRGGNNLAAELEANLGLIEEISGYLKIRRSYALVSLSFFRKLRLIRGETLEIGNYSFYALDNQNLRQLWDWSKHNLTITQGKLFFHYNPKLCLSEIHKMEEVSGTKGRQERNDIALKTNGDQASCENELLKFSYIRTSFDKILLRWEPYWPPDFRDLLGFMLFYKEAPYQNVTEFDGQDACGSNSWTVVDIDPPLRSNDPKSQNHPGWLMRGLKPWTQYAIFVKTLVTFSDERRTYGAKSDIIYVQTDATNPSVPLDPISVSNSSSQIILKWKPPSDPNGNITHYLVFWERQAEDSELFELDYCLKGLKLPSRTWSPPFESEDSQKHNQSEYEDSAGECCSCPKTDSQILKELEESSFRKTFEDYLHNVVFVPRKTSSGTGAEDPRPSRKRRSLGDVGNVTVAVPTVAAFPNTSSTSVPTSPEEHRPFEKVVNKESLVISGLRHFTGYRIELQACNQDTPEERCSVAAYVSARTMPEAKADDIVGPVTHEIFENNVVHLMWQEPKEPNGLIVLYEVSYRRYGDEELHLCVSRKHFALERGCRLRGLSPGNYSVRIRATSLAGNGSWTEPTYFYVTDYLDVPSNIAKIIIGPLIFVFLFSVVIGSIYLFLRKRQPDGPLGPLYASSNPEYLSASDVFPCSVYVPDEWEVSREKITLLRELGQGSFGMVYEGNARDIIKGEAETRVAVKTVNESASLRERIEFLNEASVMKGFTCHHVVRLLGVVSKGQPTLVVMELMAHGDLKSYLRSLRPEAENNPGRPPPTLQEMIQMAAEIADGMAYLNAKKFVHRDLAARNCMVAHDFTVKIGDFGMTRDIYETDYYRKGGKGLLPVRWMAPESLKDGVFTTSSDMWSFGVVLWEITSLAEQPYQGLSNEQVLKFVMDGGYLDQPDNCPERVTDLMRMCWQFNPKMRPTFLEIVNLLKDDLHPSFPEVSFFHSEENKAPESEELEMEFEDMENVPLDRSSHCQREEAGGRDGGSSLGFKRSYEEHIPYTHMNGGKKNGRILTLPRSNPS
In assay [4] the target is T1, IGF1R. The assay can be described thus: Cellular IGF-1R assay: inhibition of IGF1R phosphorylation in Hek293 cells, capture ELISA (MSD). Type of assay: cell-based. Also noted: expressed in transfected cells; host or cells: Hek293 (Hek293-IGF1R). The settings on record: IGF-triggered receptor phosphorylation.
For assay [5], the target named is FGFR-4 (Homo sapiens, UniProt P22455). The assay can be described thus: Enzymatic kinase assay. Type of assay: biochemical. Here is the method: as §1, §2, §3, §4
Assay [6] has as its target cKIT (Homo sapiens, UniProt P10721). The assay is described as follows: Enzymatic kinase assay. The format is biochemical. On the procedure:
as §1, §2, §3, §4

The target in assay [7] is T2, Aurora A (Homo sapiens, UniProt O14965).
T2 sequence (O14965 1-403): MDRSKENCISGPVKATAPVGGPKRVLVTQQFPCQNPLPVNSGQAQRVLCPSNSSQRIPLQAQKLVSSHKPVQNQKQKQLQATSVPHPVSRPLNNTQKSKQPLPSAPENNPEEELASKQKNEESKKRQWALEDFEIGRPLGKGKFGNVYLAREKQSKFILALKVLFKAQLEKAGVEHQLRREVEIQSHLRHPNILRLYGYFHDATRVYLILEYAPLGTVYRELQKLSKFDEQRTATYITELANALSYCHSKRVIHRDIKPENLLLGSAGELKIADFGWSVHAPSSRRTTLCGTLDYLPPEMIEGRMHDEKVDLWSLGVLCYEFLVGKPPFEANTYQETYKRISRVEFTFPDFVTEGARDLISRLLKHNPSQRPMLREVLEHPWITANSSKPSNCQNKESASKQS
The assay is described as follows: Enzymatic kinase assay. Type of assay: biochemical. On the procedure:
as §1, §2, §3, §4

Assay [8] deals with GSK3beta (Homo sapiens, UniProt P49841). The assay can be described thus: Enzymatic kinase assay. The format is biochemical. On the procedure: as §1, §2, §3, §4
Sequence of GSK3beta (P49841 whole entry, species assumed): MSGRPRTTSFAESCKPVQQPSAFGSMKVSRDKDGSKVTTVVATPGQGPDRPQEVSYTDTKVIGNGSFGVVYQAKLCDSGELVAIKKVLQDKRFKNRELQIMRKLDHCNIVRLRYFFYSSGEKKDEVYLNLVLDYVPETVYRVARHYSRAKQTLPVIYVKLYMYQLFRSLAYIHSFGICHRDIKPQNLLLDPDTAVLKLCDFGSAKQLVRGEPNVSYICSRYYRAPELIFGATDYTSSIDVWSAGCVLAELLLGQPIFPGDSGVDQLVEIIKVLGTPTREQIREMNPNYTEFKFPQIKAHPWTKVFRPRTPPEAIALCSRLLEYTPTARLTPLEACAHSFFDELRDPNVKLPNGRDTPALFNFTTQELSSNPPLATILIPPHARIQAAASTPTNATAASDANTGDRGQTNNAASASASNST
For assay [9], the target named is KDR (Homo sapiens, UniProt P35968). The assay is described as follows: Enzymatic kinase assay. Type of assay: biochemical. Here is the method: as §1, §2, §3, §4
Assay [10] deals with P38a (Homo sapiens, UniProt Q16539). The assay is described as follows: Enzymatic kinase assay. The format is biochemical. Here is the method:
as §1, §2, §3, §4

Assay [11] concerns the target cABLT315 (Homo sapiens, UniProt P00519, T315I). The assay can be described thus: Enzymatic kinase assay. The format is biochemical. Here is the method: as §1, §2, §3, §4
Assay [12] deals with PDGFRa (Homo sapiens, UniProt P16234). The assay can be described thus: Enzymatic kinase assay. Type of assay: biochemical. Here is the method: as §1, §2, §3, §4
Assay [13] concerns the target ERK2 (Homo sapiens, UniProt P28482). The assay is described as follows: Enzymatic kinase assay. Type of assay: biochemical. On the procedure:
as §1, §2, §3, §4

Assay [14] concerns the target RET (Homo sapiens, UniProt P07949). The assay is described as follows: Enzymatic kinase assay. The format is biochemical. On the procedure: as §1, §2, §3, §4
In assay [15] the target is cMET (Homo sapiens, UniProt P08581). The assay is described as follows: Enzymatic kinase assay. Type of assay: biochemical. Here is the method:
as §1, §2, §3, §4

In assay [16] the target is MK2 (Homo sapiens, UniProt P49137). The assay can be described thus: Enzymatic kinase assay. The format is biochemical. On the procedure: as §1, §2, §3, §4
Assay [17] deals with LCK (Homo sapiens, UniProt P06239). The assay can be described thus: Enzymatic kinase assay. The format is biochemical. On the procedure: as §1, §2, §3, §4
Sequence of LCK (P06239 whole entry, species assumed): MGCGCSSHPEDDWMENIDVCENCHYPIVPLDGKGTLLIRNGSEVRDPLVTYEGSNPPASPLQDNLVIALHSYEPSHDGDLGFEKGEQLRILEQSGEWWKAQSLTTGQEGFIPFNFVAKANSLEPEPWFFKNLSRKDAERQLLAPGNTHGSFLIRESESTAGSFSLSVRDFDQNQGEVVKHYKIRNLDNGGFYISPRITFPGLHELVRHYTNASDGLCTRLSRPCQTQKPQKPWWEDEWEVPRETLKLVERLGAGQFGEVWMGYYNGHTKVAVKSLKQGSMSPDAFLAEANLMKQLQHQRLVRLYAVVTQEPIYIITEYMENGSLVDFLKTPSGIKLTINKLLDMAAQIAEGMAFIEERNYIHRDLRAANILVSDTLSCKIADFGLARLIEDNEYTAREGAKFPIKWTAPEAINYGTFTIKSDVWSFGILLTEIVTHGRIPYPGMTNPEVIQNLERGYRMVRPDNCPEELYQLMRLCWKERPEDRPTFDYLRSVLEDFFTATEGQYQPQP
The target of assay [18] is JAK2 (Homo sapiens, UniProt O60674). The assay is described as follows: Enzymatic kinase assay. The format is biochemical. On the procedure: as §1, §2, §3, §4
Assay [19] concerns the target EphA4 (Homo sapiens, UniProt P54764). The assay is described as follows: Enzymatic kinase assay. Type of assay: biochemical. On the procedure: as §1, §2, §3, §4
The target of assay [20] is CDK2A (Homo sapiens, UniProt P24941). The assay is described as follows: Enzymatic kinase assay. Type of assay: biochemical. On the procedure: as §1, §2, §3, §4
The target in assay [21] is TYK2 (Homo sapiens, UniProt P29597). The assay is described as follows: Enzymatic kinase assay. The format is biochemical. Here is the method: as §1, §2, §3, §4
Assay [22] addresses HER2 (Homo sapiens, UniProt P04626). The assay is described as follows: Enzymatic kinase assay. The format is biochemical. Here is the method: as §1, §2, §3, §4
For assay [23], the target named is COT1 (Homo sapiens, UniProt P41279). The assay is described as follows: Enzymatic kinase assay. The format is biochemical. Here is the method: as §1, §2, §3, §4
Assay [24] concerns the target C-Abl (Homo sapiens, UniProt P00519). The assay can be described thus: Kinase assay of known compound and phenol metabolite X. The settings on record: metabolite comparison table. Type of assay: biochemical.
Assay [25] has as its target EphB4 (Homo sapiens, UniProt P54760). Described as above. The format is biochemical. Conditions: metabolite comparison table.
The target of assay [26] is c-src (Homo sapiens, UniProt P12931). The assay is described as above. Type of assay: biochemical. Conditions: metabolite comparison table.
Where [27] appears, read: enzymatic, read-out: InsR IC50 values.
[28] abbreviates: enzymatic, read-out: RET IC50 values (converted).

Sequence of RET (P07949 29-1114, species assumed): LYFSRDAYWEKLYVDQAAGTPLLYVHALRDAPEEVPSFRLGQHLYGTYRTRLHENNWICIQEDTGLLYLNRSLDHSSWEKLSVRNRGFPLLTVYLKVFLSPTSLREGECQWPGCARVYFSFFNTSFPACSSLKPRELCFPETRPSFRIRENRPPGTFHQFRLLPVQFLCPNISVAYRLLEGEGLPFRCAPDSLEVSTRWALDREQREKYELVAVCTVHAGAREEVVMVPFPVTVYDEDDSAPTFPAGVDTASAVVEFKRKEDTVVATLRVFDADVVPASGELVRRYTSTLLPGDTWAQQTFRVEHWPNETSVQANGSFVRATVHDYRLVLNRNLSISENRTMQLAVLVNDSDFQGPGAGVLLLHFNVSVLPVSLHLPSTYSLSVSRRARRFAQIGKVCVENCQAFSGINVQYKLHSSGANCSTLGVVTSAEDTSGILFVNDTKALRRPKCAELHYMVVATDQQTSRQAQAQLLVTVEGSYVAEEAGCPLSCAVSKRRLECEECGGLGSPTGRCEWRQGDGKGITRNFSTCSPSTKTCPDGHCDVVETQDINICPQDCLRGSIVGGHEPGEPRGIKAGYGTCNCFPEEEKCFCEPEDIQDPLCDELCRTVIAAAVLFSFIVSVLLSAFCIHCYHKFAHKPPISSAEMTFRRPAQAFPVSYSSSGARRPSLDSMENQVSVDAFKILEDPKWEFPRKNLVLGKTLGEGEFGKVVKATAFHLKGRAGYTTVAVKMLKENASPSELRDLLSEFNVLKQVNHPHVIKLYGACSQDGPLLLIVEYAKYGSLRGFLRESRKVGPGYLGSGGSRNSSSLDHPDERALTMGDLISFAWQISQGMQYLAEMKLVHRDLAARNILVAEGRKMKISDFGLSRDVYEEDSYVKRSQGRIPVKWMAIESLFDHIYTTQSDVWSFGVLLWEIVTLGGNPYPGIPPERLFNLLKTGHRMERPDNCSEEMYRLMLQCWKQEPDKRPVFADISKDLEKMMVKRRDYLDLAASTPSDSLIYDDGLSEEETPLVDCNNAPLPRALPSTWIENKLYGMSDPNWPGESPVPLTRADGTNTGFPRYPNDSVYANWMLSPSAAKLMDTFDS
Sequence of ERK2 (P28482 whole entry, species assumed): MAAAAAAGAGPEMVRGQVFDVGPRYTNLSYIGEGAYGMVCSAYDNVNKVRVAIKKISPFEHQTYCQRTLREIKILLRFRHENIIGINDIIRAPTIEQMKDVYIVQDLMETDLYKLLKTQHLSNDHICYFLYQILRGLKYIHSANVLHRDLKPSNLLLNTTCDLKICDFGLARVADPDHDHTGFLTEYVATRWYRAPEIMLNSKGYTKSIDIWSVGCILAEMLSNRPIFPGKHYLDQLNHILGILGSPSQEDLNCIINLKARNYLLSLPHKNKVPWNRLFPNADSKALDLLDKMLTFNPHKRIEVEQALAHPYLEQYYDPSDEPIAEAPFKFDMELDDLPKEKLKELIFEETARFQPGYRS

`Nc1ncnc2c1c(-c1cccc(OC[C@@H]3CCCO3)c1F)cn2[C@H]1C[C@@H](CN2CC[S+]([O-])CC2)C1` [Example 6, 5-{2-Fluoro-3-[(S)-1-(tetrahydro-furan-2-yl)methoxy]-phenyl}-7-[cis-3-(1-oxo-thiomorpholin-4-ylmethyl)-cyclobutyl]-7H-pyrrolo[2,3-d]pyrimidin-4-ylamine]: the IC50 was more than 30 µM in [1]; 0.0038 µM in assay [2]; 0.039 µM in assay [3] (setting [27]); 0.01 µM in assay [4]; more than 10 µM in assay [5]; 0.77 µM in assay [6]. Besides, the IC50 in assay [7] is more than 10 µM; in assay [8] it was more than 10 µM; in assay [9], 5.7 µM; in assay [10], more than 10 µM; in [11], more than 10 µM; in assay [12], 8.3 µM. The IC50 in assay [13] was more than 10 µM; in assay [14] (setting [28]), 3.4 µM; in assay [15] it was more than 10 µM; in assay [16], more than 10 µM; in assay [17], 8.6 µM; in assay [18], more than 10 µM. The IC50 in [19], in assay [20], in [21], in [22] and in assay [23] was more than 10 µM in each case.
On to `[2H]C1([2H])C([2H])([2H])C2(COc3cccc(-c4cn([C@H]5C[C@@H](N6CC[S+]([O-])CC6)C5)c5ncnc(N)c45)c3F)OC1([2H])C([2H])([2H])C2([2H])[2H]` [Example 18, d9-5-[2-Fluoro-3-(7-oxa-bicyclo[2.2.1]hept-1-ylmethoxy)-phenyl]-7-[cis-3-(1-oxo-thiomorpholin-4-yl)-cyclobutyl]-7H-pyrrolo[2,3-d]pyrimidin-4-ylamine], for which the IC50 was more than 30 µM in [1]; 0.015 µM in assay [2]; 0.043 µM in assay [3] (setting [27]); 0.004 µM in assay [4]; more than 10 µM in assay [5]; more than 10 µM in assay [6]. Further, the IC50 in assay [7], in [8], in assay [9], in assay [10], in assay [11] and in assay [12] was more than 10 µM each time. Also, the IC50 in assay [13], in assay [14] (setting [28]), in [15], in assay [16], in assay [17] and in assay [18] was more than 10 µM each time. The IC50 in assay [19], in assay [20], in [21], in assay [22] and in assay [23] was more than 10 µM each time.
On to `Nc1ncnc2c1c(-c1cccc(OCc3ccccc3)c1)cn2[C@H]1C[C@@H](CN2CCC2)C1` [WO02/092599, ex. 102], for which the IC50 was more than 10 µM in assay [24]; more than 10 µM in assay [25]; more than 10 µM in [26]; 0.23 µM in assay [3] (metabolite comparison table, read-out: InsR IC50); 4.4 µM in assay [14] (metabolite comparison table, read-out: RET IC50).
